Measured values: PMC3436870, “The Conserved Residue Arg46 in the N-Terminal Heptad Repeat Domain of HIV-1 gp41 Is Critical for Viral Fusion and Entry” (PLoS ONE, 2012)
Ends that are not written are not given here.

Key:
HIV-1 IIIB = experiment: Inhibition of HIV-1IIIB infection of MT-2 cells, p24 ELISA; type: cell-based; conditions: HIV-1 IIIB at 100 TCID50, peptide overnight, p24 antigen ELISA on fourth day post-infection
Protocol: The inhibitory activity of the NHR- and CHR-peptides on HIV-1IIIB infection was determined as previously described. In brief, 1×10^4 MT-2 cells were infected with HIV-1 IIIB at 100 TCID50 (50% tissue culture infective dose) in 200 µl culture medium in the presence or absence of the test peptide overnight. Then the culture supernatants were removed, and fresh media were added. On the fourth day post-infection, 100 µl of culture supernatants were collected from each well, mixed with equal volumes of 5% Triton X-100 and assayed for p24 antigen by an in-house ELISA as described before.

[1] = test system: HIV-1IIIB-mediated cell-cell fusion (H9/HIV-1IIIB-infected cells with MT-2 cells); type: cell-based; conditions: calcein-AM-labeled H9/HIV-1IIIB-infected cells with MT-2 cells (ratio 1:5), 37°C, 2 h; fused cells counted under fluorescence microscope; read-out: IC50 (nM) for inhibition of HIV-1IIIB-mediated cell-cell fusion
From the text: To detect HIV-1 mediated cell-cell fusion, we performed a dye transfer assay as previously described. […] Then under an inverted fluorescence microscope (Zeiss, Germany) with an eyepiece micrometer disc, we calculated the fused and unfused calcein-labeled HIV-1-infected cells. Previously developed methods were applied to calculate the percent inhibition of cell-cell fusion and the IC50 values.

| Sequence | IC50 (HIV-1 IIIB) [nM] | IC50 [1] [nM] |
| --- | --- | --- |
| WMEWDREINNYTSLIHSLIEASQNQQEKNEQELL [C34 E137A] | 12.2 ± 1.28 | 4.681 ± 0.029 |
| WMEWDREINNYTSLIHSLIERSQNQQEKNEQELL [C34 E137R] | 22.1 ± 1.8 | 5.32 ± 1.29 |
